Measured values taken from US20030105082A1, “Methods for improving the therapeutic response of humans having major depression and carrying the gene for apolipoprotein E4” (priority 2001, published 2003).

How the values were obtained:
[1] = system: patients 65 years of age and older with major depression; assay: 8-week double-blind comparison of paroxetine and mirtazapine: Hamilton Depression Rating Scale (HDRS-17, HDRS-21); type: in vivo, human; conditions: for HDRS-21 scores, ε4 carriers compared with those without ε4: treatment x genotype interaction p=0.033; for HDRS-17 scores, ε4 carriers compared with those without ε4: treatment x genotype interaction p=0.036; for antidepressant response / onset of action, mirtazapine vs paroxetine / early antidepressant response, ε4 carriers compared with non-ε4 carriers: early weeks of treatment, summary of the example
From the text: Hamilton Depression Rating Scale (HDRS; 17 and 21 item versions of a structured interview) (Hamilton, M., J. Neurol. Neurosurg. Psychiatr. 23:56-62, 1960; Hamilton, M., Br. J. Soc. Clin. Psychol. 6:278-296,1967). […] In other words, a lower rating in the HDRS scale signifies less depression. In contrast, HDRS remitters, which are those patients showing the least depression, are defined as subjects who have an HDRS-17 score of less than 7 at a post-baseline visit.
(§1) All statistical analyses were performed using the SAS software package (available from SAS Institute). For clinical measures of depression (HDRS-21, HDRS-17, GDS, and CGI), analyses of covariance were performed with baseline values as the covariate, and apoE genotype ([…]4 allele carrier vs. non-carrier) and medication (mirtazapine, paroxetine) as the predictors. For remitter and responder analyses of clinical measures of depression, Cochran-Mantel-Haenszel statistics were used. For comparison of medication and genotype groups on baseline demographic measures, two-way analyses of variance were used.

[2] = system: patients 65 years of age and older with major depression; assay: 8-week double-blind comparison of paroxetine and mirtazapine: Geriatric Depression Scale (GDS); type: in vivo, human; conditions: for GDS scores, ε4 carriers compared with noncarriers / GDS scores, ε4 carriers compared with those without ε4 / 50% reduction in GDS score (GDS 50% responders), ε4 carriers compared with those without ε4: day 14; for GDS scores, ε4 carriers compared with noncarriers: mirtazapine p=0.025; for GDS scores, ε4 carriers compared with those without ε4 / 50% reduction in GDS score (GDS 50% responders), ε4 carriers compared with those without ε4 / 50% reduction in GDS score, ε4 carriers compared with noncarriers: full cohort; for GDS scores, ε4 carriers compared with those without ε4: mirtazapine p=0.021; for 50% reduction in GDS score (GDS 50% responders), ε4 carriers compared with those without ε4: mirtazapine p=0.046; for 50% reduction in GDS score, ε4 carriers compared with noncarriers: mirtazapine p<0.005
Experimental: Geriatric Depression Scale (GDS) (Yesavage, J.A. et al., J. Psychiatr. Res. 17:37-49, 1983), a self-rating scale developed specifically for rating depression in the elderly. In the GDS, a lower rating signifies less depression. GDS 50% responders are defined as subjects with a decrease on a post-baseline assessment of at least 50% as compared to baseline.
as §1

[3] = system: patients 65 years of age and older with major depression; assay: 8-week double-blind comparison of paroxetine and mirtazapine: Clinical Global Impression Scale (CGI); type: in vivo, human; conditions: day 14; for CGI scores, ε4 carriers compared with noncarriers: mirtazapine p=0.028; for CGI scores, ε4 carriers compared with those without ε4: treatment x genotype interaction p=0.029
From the text: Clinical Global Impression Scale (CGI) (Guy, W., ECDEU Assessment Manual for Psychopharmacology, DHEW Publication No. (ADM) 76-338, rev. 1976). The CGI scale is a global 7-point rating of the severity of the illness taking into account the preceding week (CGI-Severity) and a global 7-point rating of the clinical status of the subject since baseline (CGI-Change). A responder is defined as being “Much Improved” or “Very Much Improved”— having a CGI score of […] 2 according to CGI-Change. Thus, a higher CGI-Severity score corresponds to more severe depression whereas a higher CGI-Change score corresponds to lessened depression, or an improvement in alleviating the symptoms of depression.
as §1

[4] = system: patients 65 years of age and older with major depression; assay: 8-week double-blind comparison of paroxetine and mirtazapine: Mini Mental State Examination (MMSE), cognition; type: in vivo, human; conditions: for mean MMSE score, ε4 carriers compared with noncarriers: week 8, full cohort, paroxetine p=0.018
Experimental: (§2) A multi-center, randomized, double-blind, 8-week comparison of paroxetine and mirtazapine was performed for 246 nondemented, cognitively intact patients 65 years of age and older with major depression. All patients were genotyped at the apoE locus as discussed further below.
(§3) After an initial evaluation period, the mirtazapine patients started with a 15 mg dose per day. After two weeks of treatment (Day 14), patients' dosages were raised to 30 mg per day. […] Subjects who rate “Much Improved” or “Very Much Improved” on the CGI Scale I continued on the same dose they were receiving during the previous week.
(§4) For paroxetine, the dosing system was the same, except that the starting dosage was 20 mg per day, raised to 30 mg per day, and to a maximum of 40 mg per day.
Mini Mental State Examination (MMSE) (Folstein, M.F. et al., J. Psychiatr. Res. 12:189-198, 1975). This test represents a brief standardized method to grade cognitive mental status. The test assesses orientation, attention, immediate and short-term recall, language, and the ability to follow verbal and written commands. The lower the score, the lower the cognitive mental status.
as §1

[5] = 8-week comparison of paroxetine and mirtazapine: plasma drug concentrations by apoE genotype
Experimental: as §2, §3, §4
(§5) To screen patients for the gene, genomic DNA was extracted from EDTA-treated whole blood using the Puregene DNA extraction kit (available from Gentra Systems). ApoE genotypes were determined using restriction isotyping (restriction enzyme isoform genotyping) according to the protocol of Hixson and Vernier (J. Lipid Res. 31:545-548,1990), as set forth in Murphy, G.E. et al., Am. J. Psychiatr. 154:603-608, 1997. Genotypes were determined by two observers blind as to the clinical or neuropathological diagnosis.

[6] = 8-week comparison of paroxetine and mirtazapine: discontinuation due to adverse events by apoE genotype
Experimental: as §2, §3, §4, §5

[7] = day 14, Caucasian patients, p=0.006
[8] = day 14, patients carrying an apoE ε4 allele
[9] = day 14, patients with an apoE ε4 allele, remitter = HDRS-17 score less than 7
[10] = day 14, patients without an apoE ε4 allele

Structure (SMILES)	HDRS scores, ε4 carriers compared with noncarriers ([1]; day 14, Caucasian patients)	HDRS-21 scores, ε4 carriers compared with those without ε4 ([1]; day 14, full cohort)	HDRS-17 scores, ε4 carriers compared with those without ε4 ([1]; day 14, full cohort)	HDRS-21 50% responders [1, 8]	HDRS-17 remitters [1, 9]	HDRS-21 50% responders [1, 10]	antidepressant response / onset of action, mirtazapine vs paroxetine [1]	early antidepressant response, ε4 carriers compared with non-ε4 carriers [1]	GDS scores, ε4 carriers compared with noncarriers ([2]; Caucasian patients)	GDS scores, ε4 carriers compared with those without ε4 [2]	50% reduction in GDS score (GDS 50% responders), ε4 carriers compared with those without ε4 [2]	50% reduction in GDS score, ε4 carriers compared with noncarriers ([2]; day 28)	CGI scores, ε4 carriers compared with noncarriers ([3]; Caucasian patients)	CGI scores, ε4 carriers compared with those without ε4 ([3]; full cohort)	mean MMSE score, ε4 carriers compared with noncarriers [4]	number of patients who discontinued due to adverse events, ε4 carriers vs noncarriers ([6]; full cohort)	other results
CN1CCN2c3ncccc3Cc3ccccc3C2C1 (stereo not shown) [mirtazapine, 1,2,3,4,10,14b-hexahydro-2-methylpyrazino [2,1a]pyrido[2,3-c]benzazepine]	greater improvement	significantly lower scores	significantly lower scores	48%	28%	29.4%	higher rate of antidepressant response	significantly stronger	significantly lower	large decrease in GDS scores	significantly more likely	significantly more	significantly better	significantly lower scores	no effect	no significant differences	improvement in HDRS-17 scores, mirtazapine-treated vs paroxetine-treated patients ([1]; day 7, full cohort): significantly greater improvement; mean HDRS-17 scores, mirtazapine vs paroxetine [1, 7]: significantly lower; mean HDRS-21 scores, mirtazapine vs paroxetine [1, 7]: significantly lower; percentage of ε4 carriers responding to medication treatment, mirtazapine vs paroxetine ([1]; day 14, Caucasian subjects, each of 50% reduction in HDRS-17, HDRS-21, HDRS-17 remission, 50% reduction in GDS): greater; improvement in HDRS-17 scores, mirtazapine-treated vs paroxetine-treated patients ([1]; day 14, full cohort): Significantly greater improvement; improvement in HDRS-21 scores, mirtazapine-treated vs paroxetine-treated patients ([1]; day 14, full cohort): Significantly greater improvement; HDRS-17 50% responders, ε4 carriers compared with those without ε4 ([1]; day 14, p=0.049): significantly more; HDRS-17 remitters [1, 10]: 7.1%; patients showing a 50% reduction in GDS score ([2]; day 28, Caucasian patients, noncarriers): 16.9%; patients showing a 50% reduction in GDS score ([2]; day 28, Caucasian patients, ε4 carriers): 41.7%; CGI scores, mirtazapine vs paroxetine treated subjects ([3]; Caucasian patients, p=0.037): significantly better; improvement in CGI scores, mirtazapine-treated vs paroxetine-treated patients ([3]; full cohort): Significantly greater improvement; plasma drug concentrations, ε4 carriers vs non-ε4 carriers ([5]; in vivo): no differences; number of patients who discontinued due to adverse events, ε4 carriers vs noncarriers ([6]; in vivo): no significant differences
Fc1ccc([C@@H]2CCNC[C@H]2COc2ccc3c(c2)OCO3)cc1 [paroxetine]	less improvement	higher scores	higher scores	none	none	23.3%	slower onset of anti-depressant action	particularly slow to respond	no effect	no significant difference	no difference	no effect of apoE genotype	no differences	higher scores	significantly lower	no significant differences	patients showing a 50% decrease in HDRS-17 score over baseline (HDRS-17 50% responders) ([1]; day 14, patients with an apoE ε4 allele): none; effect of the ε4 genotype on the number of patients showing a 50% reduction in GDS ([2]; day 28, Caucasian patients): no significant effect; MMSE score, ε4 carriers compared with those without ε4 ([4]; Caucasian subjects, trend, p=0.05): lower MMSE score; plasma drug concentrations, ε4 carriers vs non-ε4 carriers ([5]; Caucasian subjects): no differences; plasma drug concentrations, ε4 carriers vs non-ε4 carriers ([5]; full cohort): no differences; number of patients who discontinued due to adverse events, ε4 carriers vs noncarriers ([6]; Caucasian subjects): no significant differences
